In ChEMBL document CHEMBL5137041, “Total Syntheses and Cytotoxicity Evaluation of Coryaurone A and Representative Analogues” (J Nat Prod, 2022) one finds IC50 data, which are given here for 20 compounds.

One assay relates to SW480. Put plainly: Cytotoxicity against human SW480 cells assessed as cell growth inhibition incubated for 48 hrs by MTS assay. It is filed as functional, cell-based. To be noted: SW480, 48 h.
The next assay relates to HL-60. The assay is described as follows: Cytotoxicity against human HL-60 cells assessed as cell growth inhibition incubated for 48 hrs by MTS assay. It is filed as functional, cell-based. The note with it: HL-60, 48 h.

Turning to `CC(C)(O)[C@H]1Cc2c(ccc3c2O/C(=C\c2ccc(O)c(O)c2)C3=O)O1`, the values for the IC50 in the assay on SW480 and in the assay with HL-60 were 13 µM and 18 µM, respectively.
For `CC(C)(O)[C@H]1Cc2c(ccc3c2O/C(=C\c2cccc4cccnc24)C3=O)O1` the same measures were more than 40 µM and more than 40 µM.
For `CC(C)(O)[C@H]1Cc2c(ccc3c2O/C(=C\c2ccc(Cl)cc2)C3=O)O1` the same measures were 7.7 µM and more than 40 µM.
For `COc1ccc(/C=C2\Oc3c(ccc4c3C[C@H](C(C)(C)O)O4)C2=O)cc1` the same measures were more than 40 µM and more than 40 µM.
For the compound `CC(C)(O)[C@H]1Cc2c(ccc3c2O/C(=C\c2ccc(O)c(Cl)c2)C3=O)O1`, the figures for the 50% inhibitory concentration (IC50) in the assay on SW480 and in the assay on HL-60 were 35 µM and 14 µM, respectively.
For `CC(C)(O)[C@H]1Cc2c(ccc3c2O/C(=C\c2ccco2)C3=O)O1`, the IC50 in the assay on SW480 was 39 µM; with HL-60, 28 µM.
For `CC(C)(O)[C@H]1Cc2c(ccc3c2OCC3=O)O1` the same measures were more than 40 µM and more than 40 µM.
The like results for `CC(C)(O)[C@H]1Cc2c(ccc3c2OC(Cc2ccc(O)c(O)c2)C3)O1` (stereo not given in full) were, in that order, more than 40 µM and more than 40 µM.
For `CC(C)(O)[C@H]1Cc2c(ccc3c2O/C(=C\c2ccc(O)c(C(=O)O)c2)C3=O)O1` the same measures were more than 40 µM and more than 40 µM.
As for `Cc1cc(/C=C2\Oc3c(ccc4c3C[C@H](C(C)(C)O)O4)C2=O)ccc1O`, the concentration for half-maximal inhibition (IC50) with SW480 was 11 µM; with HL-60, more than 40 µM.
Regarding `CC(C)(O)[C@H]1Cc2c(ccc3c2O/C(=C\c2ccc(O)cc2)C3=O)O1`, the concentration for half-maximal inhibition (IC50) in the assay on SW480 and with HL-60 was more than 40 µM each time.
As to `COc1ccc(/C=C2\Oc3c(ccc4c3C[C@H](C(C)(C)O)O4)C2=O)cc1O`, the figures for the IC50 in the assay on SW480 and in the assay with HL-60 were 20 µM and 3.9 µM, respectively.
Regarding `CC(C)(O)[C@H]1Cc2c(ccc3c2O/C(=C\c2ccc(C(F)(F)F)cc2)C3=O)O1`, the concentration for half-maximal inhibition (IC50) in the assay on SW480 is more than 40 µM; in the assay on HL-60 it was 16 µM.
Regarding `CC(C)(O)[C@H]1Cc2c(ccc3c2O/C(=C\c2ccccc2)C3=O)O1`, the IC50 in the assay on SW480 and with HL-60 was more than 40 µM throughout.
As to `CC(C)(O)[C@H]1Cc2c(ccc3c2O/C(=C\c2cc([N+](=O)[O-])ccc2O)C3=O)O1`, the IC50 with SW480 was found to be 23 µM; in the assay on HL-60, 12 µM.
The like results for `CC(C)(O)[C@H]1Cc2c(ccc3c2O/C(=C\c2ccc([N+](=O)[O-])cc2)C3=O)O1` were, in that order, 9.2 µM and more than 40 µM.
For `CC(C)(O)[C@H]1Cc2c(ccc3c2O/C(=C\c2ccc4[nH]ccc4c2)C3=O)O1` the same measures were more than 40 µM and more than 40 µM.
The like results for `CC(C)(O)[C@H]1Cc2c(ccc3c2O/C(=C\c2cccs2)C3=O)O1` were, in that order, more than 40 µM and more than 40 µM.
Turning to `COc1cc(/C=C2\Oc3c(ccc4c3C[C@H](C(C)(C)O)O4)C2=O)cc(OC)c1OC`, the IC50 with SW480 was more than 40 µM; with HL-60 it was 22 µM.
As for `CC(C)=CCc1c(O)ccc2c1O/C(=C\c1ccc(O)c(O)c1)C2=O` [LICOAGROAURONE], the 50% inhibitory concentration (IC50) in the assay on SW480 is 8.2 µM; in the assay with HL-60, 19 µM.
